Source: publication PMC9330389, “Bambus[4,6]urils as Dual Scaffolds for Multivalent Iminosugar Presentation and Ion Transport: Access to Unprecedented Glycosidase-Directed Anion Caging Agents” (Molecules, 2022)
Like-named read-outs stand apart in the source and are kept apart here.

Key:
[1] = Isothermal titration calorimetry of iodide binding to bambusuril; conditions: in water, ITC
Method: ITC measurements were performed with a VP-ITC microcalorimeter (Microcal, GEHealthcare). Experiments were carried out in water and in a solution of K2HPO4 (1.5 mM) in mili-Q water at 298.15 ± 0.1 K. Anion binding to BU was investigated via a classical isothermal titration experiment (10 µL additions) and a single injection method (SIM). Injection of sodium iodide solution was added automatically to the BU solution present in the calorimeter cell while stirring at 307 rpm. Integrated heat effects were analyzed by non-linear regression using a single-site binding model (Microcal Origin 7). The experimental data fitted to a theorical titration curve, giving the association constant Ka, the enthalpy of binding ΔH° and the entropy ΔS°. The free energy ΔG° was calculated from the equation: ΔG° = ΔH° − TΔS°, where T is the absolute temperature. The first smaller addition (2 µL), which was used to compensate for diffusion of the guest from the injector during equilibration, was discarded prior to data fitting.
Figure S1. Isothermal titration calorimetry of I- binding to (DNJ-C6)12BU[6] 6 in H2O.
Top: Data were obtained from the sequential injections of 10µL of guest solution (0.6 mM NaI) to BU
6 (0.05 mM). Bottom: Plot of the total heat released as a function of the total ligand concentration
for the titration shown upper.
(1 picture or pasted object on this page, not shown here)

Jack Bean α-mannosidase [2] = molecular target: T1, Jack Bean α-mannosidase (Canavalia ensiformis, UniProt C0HJB3); test: Inhibition assays on Jack-Bean α-mannosidase (p-nitrophenyl-α-D-mannopyranoside hydrolysis, Dixon and Lineweaver–Burk); format: biochemical; conditions: for Ki: 0.2 M acetate buffer pH 5, 25-27 °C, for mixed inhibitors the first value of the cell (Ki); for Rp (relative potency): rp = Ki (monovalent reference)/Ki (neoglycocluster)
T1 construct: purchased Sigma Aldrich, St. Louis, MO, USA
T1 sequence (C0HJB3 1-981): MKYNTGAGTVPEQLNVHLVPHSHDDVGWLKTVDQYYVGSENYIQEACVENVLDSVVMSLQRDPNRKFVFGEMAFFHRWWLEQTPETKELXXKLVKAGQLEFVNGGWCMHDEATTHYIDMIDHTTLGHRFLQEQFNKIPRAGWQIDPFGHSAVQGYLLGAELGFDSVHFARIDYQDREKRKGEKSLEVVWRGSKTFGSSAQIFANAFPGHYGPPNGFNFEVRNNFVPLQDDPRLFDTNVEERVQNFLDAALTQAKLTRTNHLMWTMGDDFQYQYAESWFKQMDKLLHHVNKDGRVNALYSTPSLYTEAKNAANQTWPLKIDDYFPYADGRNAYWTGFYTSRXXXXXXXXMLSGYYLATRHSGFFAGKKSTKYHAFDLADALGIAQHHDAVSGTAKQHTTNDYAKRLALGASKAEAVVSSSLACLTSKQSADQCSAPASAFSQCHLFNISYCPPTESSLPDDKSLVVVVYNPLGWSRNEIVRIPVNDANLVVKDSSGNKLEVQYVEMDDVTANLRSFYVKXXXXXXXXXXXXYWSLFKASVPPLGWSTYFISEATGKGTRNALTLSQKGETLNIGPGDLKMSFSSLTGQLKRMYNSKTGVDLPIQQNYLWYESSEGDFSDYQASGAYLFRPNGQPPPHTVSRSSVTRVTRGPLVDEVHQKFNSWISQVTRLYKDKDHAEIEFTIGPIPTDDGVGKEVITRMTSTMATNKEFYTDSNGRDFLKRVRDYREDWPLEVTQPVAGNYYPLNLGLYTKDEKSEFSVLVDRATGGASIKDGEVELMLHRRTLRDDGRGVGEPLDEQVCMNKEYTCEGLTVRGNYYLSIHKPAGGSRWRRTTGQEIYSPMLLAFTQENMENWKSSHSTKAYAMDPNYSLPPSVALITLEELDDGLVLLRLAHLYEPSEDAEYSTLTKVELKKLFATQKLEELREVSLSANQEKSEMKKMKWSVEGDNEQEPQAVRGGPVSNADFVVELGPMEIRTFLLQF
Method: p-nitrophenyl-α-D-mannopyranoside and α-mannosidase (EC 3.2.1.24, from Jack Bean) were purchased from Sigma Aldrich, St. Louis, MO, USA. Inhibition constants were determined spectrophotometrically by measuring the residual hydrolytic activities of the α-mannosidase against p-nitrophenyl-α-D-mannopyranoside in the presence and absence of an inhibitor. Each well was filled with a total volume of 100 µL, containing 0.2 M acetate buffer pH 5, inhibitor, substrate and enzyme. All kinetics were performed between 25 °C and 27 °C and started by enzyme addition. After 30–50 min of incubation, the reaction was quenched by addition of 100 µL of 1M Na2CO3. The absorbance of the resulting solution was determined at 405 nm. Ki values were determined in triplicate, using the Dixon and Lineweaver–Burk graphical methods within Microsoft Excel. Stock solutions of inhibitors were prepared with DMSO/buffer for final well DMSO content under 5%. The stability of the enzyme in the presence of the same concentrations of DMSO was controlled and enzyme activity was unaffected.

Jack Bean α-mannosidase [3] = molecular target: T1, Jack Bean α-mannosidase; conditions: cited from earlier work; for Inhibition Mode: monovalent references

| Compound | Ka (iodide) [1] | Inhibition Mode (Jack Bean α-mannosidase [2]) | Ki (Jack Bean α-mannosidase [2]) | Ki' (Jack Bean α-mannosidase [2]; mixed inhibition, second value of the cell (Ki' in supplement)) | Rp (relative potency) (Jack Bean α-mannosidase [2]) | rp/n (relative potency per inhitope) (Jack Bean α-mannosidase [2]; n = number of inhitope units) | Ki (Jack Bean α-mannosidase [3]; monovalent C6 reference) | Inhibition Mode (Jack Bean α-mannosidase [3]) | Ki (Jack Bean α-mannosidase [3]; monovalent C9 reference) |
| --- | --- | --- | --- | --- | --- | --- | --- | --- | --- |
| O=C1N(Cc2cn(CCCCCCN3C[C@H](O)[C@@H](O)[C@H](O)[C@H]3CO)nn2)C2C(N1Cc1cn(CCCCCCN3C[C@H](O)[C@@H](O)[C@H](O)[C@H]3CO)nn1)N1CN3C(=O)N(CN4C(=O)N(CN5C(=O)N(CN6C(=O)N(CN7C(=O)N(CN2C1=O)C1C7N(Cc2cn(CCCCCCN7C[C@H](O)[C@@H](O)[C@H](O)[C@H]7CO)nn2)C(=O)N1Cc1cn(CCCCCCN2C[C@H](O)[C@@H](O)[C@H](O)[C@H]2CO)nn1)C1C6N(Cc2cn(CCCCCCN6C[C@H](O)[C@@H](O)[C@H](O)[C@H]6CO)nn2)C(=O)N1Cc1cn(CCCCCCN2C[C@H](O)[C@@H](O)[C@H](O)[C@H]2CO)nn1)C1C5N(Cc2cn(CCCCCCN5C[C@H](O)[C@@H](O)[C@H](O)[C@H]5CO)nn2)C(=O)N1Cc1cn(CCCCCCN2C[C@H](O)[C@@H](O)[C@H](O)[C@H]2CO)nn1)C1C4N(Cc2cn(CCCCCCN4C[C@H](O)[C@@H](O)[C@H](O)[C@H]4CO)nn2)C(=O)N1Cc1cn(CCCCCCN2C[C@H](O)[C@@H](O)[C@H](O)[C@H]2CO)nn1)C1C3N(Cc2cn(CCCCCCN3C[C@H](O)[C@@H](O)[C@H](O)[C@H]3CO)nn2)C(=O)N1Cc1cn(CCCCCCN2C[C@H](O)[C@@H](O)[C@H](O)[C@H]2CO)nn1 (stereo partly shown) [Compound 6, (DNJ-C6)12BU[6]] | 480000 M⁻¹ | mixed | 68.2 µM | 147 ± 21 µM | 4.7 |  |  |  |  |
| CCCC[N+](CCCC)(CCCC)CCCC.O=C1N(Cc2cn(CCCCCCCCCN3C[C@H](O)[C@@H](O)[C@H](O)[C@H]3CO)nn2)C2C(N1Cc1cn(CCCCCCCCCN3C[C@H](O)[C@@H](O)[C@H](O)[C@H]3CO)nn1)N1CN3C(=O)N(CN4C(=O)N(CN5C(=O)N(CN6C(=O)N(CN7C(=O)N(CN2C1=O)C1C7N(Cc2cn(CCCCCCCCCN7C[C@H](O)[C@@H](O)[C@H](O)[C@H]7CO)nn2)C(=O)N1Cc1cn(CCCCCCCCCN2C[C@H](O)[C@@H](O)[C@H](O)[C@H]2CO)nn1)C1C6N(Cc2cn(CCCCCCCCCN6C[C@H](O)[C@@H](O)[C@H](O)[C@H]6CO)nn2)C(=O)N1Cc1cn(CCCCCCCCCN2C[C@H](O)[C@@H](O)[C@H](O)[C@H]2CO)nn1)C1C5N(Cc2cn(CCCCCCCCCN5C[C@H](O)[C@@H](O)[C@H](O)[C@H]5CO)nn2)C(=O)N1Cc1cn(CCCCCCCCCN2C[C@H](O)[C@@H](O)[C@H](O)[C@H]2CO)nn1)C1C4N(Cc2cn(CCCCCCCCCN4C[C@H](O)[C@@H](O)[C@H](O)[C@H]4CO)nn2)C(=O)N1Cc1cn(CCCCCCCCCN2C[C@H](O)[C@@H](O)[C@H](O)[C@H]2CO)nn1)C1C3N(Cc2cn(CCCCCCCCCN3C[C@H](O)[C@@H](O)[C@H](O)[C@H]3CO)nn2)C(=O)N1Cc1cn(CCCCCCCCCN2C[C@H](O)[C@@H](O)[C@H](O)[C@H]2CO)nn1.[Br-] (stereo partly shown) [Compound 10, Br^-@(DNJ-C9)12BU[6].TBA^+] |  | competitive | 0.488 µM |  | 385 | 32 |  |  |  |
| CCCn1cc(CCCCCCN2C[C@H](O)[C@@H](O)[C@H](O)[C@H]2CO)nn1 [Compound 21] |  |  |  |  |  |  | 322 µM | competitive |  |
| CCCn1cc(CCCCCCCCCN2C[C@H](O)[C@@H](O)[C@H](O)[C@H]2CO)nn1 [Compound 22] |  |  |  |  |  |  |  | competitive | 188 µM |
